Like-named read-outs stand apart in the source and are kept apart here.
Legend:
[1] = system: sulfonylurea herbicide-susceptible (SU-susceptible) catchweed bedstraw (GALAP; Galium aparine); experiment: Test K postemergence; format: in vivo; conditions: 16 g a.i./ha, 15 days
Protocol: (§1) Seeds of plant species selected from sulfonylurea herbicide-susceptible (SU-susceptible) and sulfonylurea herbicide-resistant (SU-resistant) catchweed bedstraw (GALAP; Galium aparine) and wheat (TRZAW; Triticum aestivum) were treated with postemergence applications of test chemicals formulated in a non-phytotoxic solvent mixture which included a surfactant. Plants were treated at the 2-3 leaf stage and 2 whorl stage for wheat and catchweed bedstraw, respectively. Treated plants and controls were maintained in a controlled growth environment for 15 days after which time all species were compared to controls and visually evaluated. Plant response ratings, summarized in Table K, are based on a scale of 0 to 100 where 0 is no effect and 100 is complete control. A dash (-) response means no test result.

[2] = system: wheat (TRZAW; Triticum aestivum); experiment: Test K postemergence; format: in vivo; conditions: 16 g a.i./ha, 15 days
Protocol: as §1

[3] = system: sulfonylurea herbicide-resistant (SU-resistant) catchweed bedstraw (GALAP; Galium aparine); experiment: Test K postemergence; format: in vivo; conditions: 16 g a.i./ha, 15 days
Protocol: as §1

[4] = system: barnyardgrass (Echinochloa crus-galli); experiment: Test A pre/postemergence; format: in vivo; conditions: Echinochloa crus-galli, 240 h, read-out: Plant response rating, Barnyardgrass; for pest or weed control at 125 g/ha: 125 g ai/ha; for pest or weed control at 500 g/ha: 500 g ai/ha
Summary of the method: (§2)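 Visual injury scored 0–100 (0 = no effect, 100 = complete control) against untreated controls after about ten days in the greenhouse. Compounds, formulated in non-phytotoxic solvent plus surfactant, were applied preemergence as a directed soil spray and postemergence at the 1- to 2-leaf stage (2–10 cm).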

[5] = system: redroot pigweed (Amaranthus retroflexus); experiment: Test A pre/postemergence; format: in vivo; conditions: Amaranthus retroflexus, 240 h, read-out: Plant response rating, Pigweed; for pest or weed control at 125 g/ha: 125 g ai/ha; for pest or weed control at 500 g/ha: 500 g ai/ha
Summary of the method: as §2

[6] = system: crabgrass (Digitaria sanguinalis); experiment: Test A pre/postemergence; format: in vivo; conditions: Digitaria sanguinalis, 240 h, read-out: Plant response rating, Crabgrass; for pest or weed control at 125 g/ha: 125 g ai/ha; for pest or weed control at 500 g/ha: 500 g ai/ha
Summary of the method: as §2

[7] = system: velvetleaf (Abutilon theophrasti); experiment: Test A pre/postemergence; format: in vivo; conditions: Abutilon theophrasti, 240 h, read-out: Plant response rating, Velvetleaf; for pest or weed control at 125 g/ha: 125 g ai/ha; for pest or weed control at 500 g/ha: 500 g ai/ha
Summary of the method: as §2

[8] = system: morningglory (Ipomoea spp.); experiment: Test A pre/postemergence; format: in vivo; conditions: Ipomoea, 240 h, read-out: Plant response rating, Morningglory; for pest or weed control at 125 g/ha: 125 g ai/ha; for pest or weed control at 500 g/ha: 500 g ai/ha
Summary of the method: as §2

[9] = system: giant foxtail (Setaria faberi); experiment: Test A pre/postemergence; format: in vivo; conditions: Setaria faberi, 240 h, read-out: Plant response rating, Foxtail, Giant; for pest or weed control at 125 g/ha: 125 g ai/ha; for pest or weed control at 500 g/ha: 500 g ai/ha
Summary of the method: as §2

[10] = post-emergence, Postemergence, 0 to 100 scale (0 no effect, 100 complete control)
[11] = pre-emergence, Preemergence, 0 to 100 scale where 0 is no effect and 100 is complete control, approximately ten days

| Compound | pest or weed control at 125 g/ha [4, 10] [%] | pest or weed control at 500 g/ha [4, 10] [%] | pest or weed control at 125 g/ha [4, 11] [%] | pest or weed control at 500 g/ha [4, 11] [%] | pest or weed control at 125 g/ha [5, 10] [%] | pest or weed control at 500 g/ha [5, 10] [%] | pest or weed control at 125 g/ha [5, 11] [%] | pest or weed control at 500 g/ha [5, 11] [%] | pest or weed control at 125 g/ha [6, 10] [%] | pest or weed control at 500 g/ha [6, 10] [%] | pest or weed control at 125 g/ha [6, 11] [%] | pest or weed control at 500 g/ha [6, 11] [%] | pest or weed control at 125 g/ha [7, 10] [%] | pest or weed control at 500 g/ha [7, 10] [%] | pest or weed control at 125 g/ha [7, 11] [%] | pest or weed control at 500 g/ha [7, 11] [%] | pest or weed control at 125 g/ha [8, 10] [%] | pest or weed control at 500 g/ha [8, 10] [%] | pest or weed control at 125 g/ha [8, 11] [%] | pest or weed control at 500 g/ha [8, 11] [%] | further results |
| --- | --- | --- | --- | --- | --- | --- | --- | --- | --- | --- | --- | --- | --- | --- | --- | --- | --- | --- | --- | --- | --- |
| COc1nc(C)nc(NC(=O)NS(=O)(=O)c2ccccc2Cl)n1 [Chlorsulfuron, chlorsulfuron, reference compound] |  |  |  |  |  |  |  |  |  |  |  |  |  |  |  |  |  |  |  |  | Plant response rating (0 to 100 scale) [1]: 100; Plant response rating (0 to 100 scale) [2]: 20; Plant response rating (0 to 100 scale) [3]: 5 |
| COC(=O)c1nc(C(C)C)nc(N)c1Cl [Compound 110] | 0 | 10 | 0 | 15 | 55 | 85 | 40 | 65 | 0 | 10 | 0 | 15 | 40 | 65 | 25 | 35 | 70 | 85 | 0 | 90 | pest or weed control at 125 g/ha [9, 10]: 0%; pest or weed control at 500 g/ha [9, 10]: 5%; pest or weed control at 125 g/ha [9, 11]: 0%; pest or weed control at 500 g/ha [9, 11]: 0%; melting point: 100 to 104 °C (dec.) |
| NC(=O)c1nc(C2CC2)nc(N)c1Cl [Compound 85] | 0 | 0 | 0 | 0 | 75 | 90 | 50 | 60 | 0 | 0 | 0 | 5 | 25 | 60 | 0 | 10 | 20 | 75 | 0 | 20 | pest or weed control at 125 g/ha [9, 10]: 0%; pest or weed control at 500 g/ha [9, 10]: 0%; pest or weed control at 125 g/ha [9, 11]: 0%; pest or weed control at 500 g/ha [9, 11]: 0%; melting point: 232 to 236 °C |
| CCOC(=O)c1nc(C(C)C)nc(N)c1Cl [Compound 108] | 0 | 5 | 10 | 15 | 50 | 85 | 55 | 75 | 0 | 0 | 0 | 20 | 35 | 65 | 10 | 50 | 70 | 90 | 0 | 90 | pest or weed control at 125 g/ha [9, 10]: 0%; pest or weed control at 500 g/ha [9, 10]: 10%; pest or weed control at 125 g/ha [9, 11]: 0%; pest or weed control at 500 g/ha [9, 11]: 0%; melting point: 102 to 103 °C |

Reference: patent publication US8802597B2, “Herbicidal pyrimidines” (E I du Pont de Nemours and Company, priority 2003, dated 2014)
